# What was measured:
# Type in all cases: binding, human
# USP8 MIT domain [1] = test: SPOT array of predicted peptides from known interactors, USP8 MIT domain; conditions: for Percentage (%) normalized to highest intensity and corrected for background: SPOT array, GST-tagged MIT 100 µM, overnight 4 °C, chemiluminescence, highest intensity = DNAJB6; for Percentage (%): Supplementary Fig. 4B, normalized to the highest intensity and corrected for background
# Excerpt: To further assess the SLiM-based interactions of the USP8 MIT domain, we designed a peptide array tiling 24 potential binding sites in previously reported USP8 interactors. We used SLiMSearch to search for peptides that contain shorter or longer matches to the motif (Supplementary Table S4A). […] The DNAJB6_118 - 130 peptide was predicted as a binder based on a partial DFx{2,3}R motif. The DNAJB6-USP8 interaction is supported by previous GST-pulldown experiments and colocalization of the two proteins in male mouse germ cells, and the interaction is thought to be of importance to the protein quality control to yield functional spermatozoa. In the case of the CDH1_863 - 877 peptide it was predicted as USP8 MIT ligand based on the presence of an RFxxL motif. The previous support of the CDH1-USP8 interaction is based on proximity labelling mass spectrometry, and our results thus provide evidence for a binary interaction between the two proteins and define a binding site. To confirm that the motifs used to predict the interactions were of importance for binding we designed an alanine scanning peptide SPOT array analysis of the DNAJB6_118 - 130 and the CDH1_863 - 877 peptides. […] In summary, we find that the USP8 MIT domain binds to a MIM1-like motif that can be expressed by [[…]], as well as degenerate variants thereof. […] The membranes of predicted peptides were purchased by JPT Peptide Technologies (Berlin, Germany). The membranes were incubated with blocking buffer containing 5% skim milk in TBST (50 mM Tris, 150 mM NaCl pH 7.5, 0.05% Tween-20) for two hours at room temperature. The blocked membranes were incubated with GST-tagged proteins (100 μM for MIT domain and 150 μM for the Rhodanese domain) in blocking buffer overnight at 4 °C. After rinsed with TBST the membranes were incubated with HRP-conjugated anti-GST antibody (Cytiva, RPN1236; 1:3000 dilution) in blocking buffer for 1 h at 4 °C and subsequently rinsed with TBST to remove any excess antibody. The ECL reagent (Clarity Max Western ECL substrate, 1705062, BioRad) was used for chemiluminescence read-out with the ChemiDoc Imaging system (BioRad). The images were analysed with Fiji (ImageJ2 version 2.9.0). […] used to design the peptide arrays with known interactors predicted to contain the motifs. The background signal intensity was subtracted, and the corrected signal intensities were normalized to the positive control and presented as percentage.
# USP8 MIT domain [2] = test: Proteomic peptide-phage display (ProP-PD) selection against USP8 MIT domain; parameters: Confidence: scale not given here; conditions: for NGS counts (%): ProP-PD, human disorderome library, GST-tagged MIT bait, four rounds of selection, percent of NGS counts associated with each peptide, Fig. 1B; for max_counts: Total NGS counts; for Confidence: calculated based on four metrics: overlapping peptides, replicated peptides, motif match, peptide counts; for Counts: fraction of NGS counts for a selection; for Promiscuity: number of baits selections where the peptide has been observed, calculated on the domain level; for Replicates: number of screens against the bait protein in which the peptide has been found; for Specificity: proportion for the current bait of the total NGS read counts of the peptide for all baits screened with this library
# Procedure: We explored the peptide-binding of the USP8 MIT domain by using the purified GST-tagged MIT domain as bait in proteomic peptide-phage display (ProP-PD) selections and a library designed to display the predicted unstructured regions of the human proteome. The peptide-coding regions of the binding-enriched phage pools were analysed by next-generation sequencing (NGS). After filtering for high confidence ligands, ten ligands remained (Fig. 1B; Supplementary Table S1). None of the ten identified protein-protein interactions had been previously reported, based on comparison with the information available in IntAct, HIPPIE and BioGrid (February 2025). Of the USP8 interacting proteins found, the D site-binding protein (DBP), which is a clock-controlled transcription factor, appears as an interesting ligand as USP8 has been reported to be involved in controlling the circadian rhythm. Also, the CCDC88A-encoded protein Girdin is an interactor of potential biological relevance as it is a scaffolding protein involved in the EGFR pathway which USP8 is known to regulate. At the motif level, there was no shared consensus motif among the ten peptide ligands. However, by manual inspection we noticed that four of the peptides contained a shared [LI]xxR[IY]xxL sequence, which appears to be a variation of the [DE]xxLxxRLxxL[KR] MIM1 motif described in the Eukaryotic Linear Motif resource (ELM) (Fig. 1B). We performed a SPOT array alanine scanning analysis in which peptides are synthesised on a membrane, and where each amino acid position of the peptide is mutated to alanine (or glycine if alanine is in the wild type peptide) to evaluate the effect of the amino acid residues in binding. We tested two peptides containing the apparent MIM1-like motif, one from Girdin (Girdin1192 − 1207) and one from the histone-lysine N-methyltransferase SETD1B (SETD1B492 − 507). […] AlphaFold3 (AF3) modelling of the four peptides with the variant MIM1 motif and the MIT domain docked the peptides with high confidence (ipTM scores: HIVEP1_741 − 756: 0.87, Girdin1192 − 1207: 0.85, MLPH481 − 496: 0.82, SETD1B492 − 507: 0.75) at the expected MIM1 binding pocket (Fig. 1D). […] However, the USP8 MIT selection was dominated (more than 94% of NGS counts) by two peptides that lack an apparent MIM1 motif. The two peptides were from the EF-hand calcium-binding domain-containing protein 12 (EFCAB12_1 − 16: […]) and from DBP (DBP116 − 131: […]) (Fig. 1B). […] In comparison to this, the EFCAB12_1 − 16 peptide shares a potential Dx[YF]xxxH[SG] motif with the DBP116 − 131 (Fig. 1B). […] The AF3 model of DBP116 − 131 peptide supports the interaction of D120 of the DBP116 − 131 peptide with the residues K74 and N71 in the MIT domain (Fig. 1G), emphasizing the significance of the aspartic acid at this position. […] Of them, two peptides (SYNE2_853 − 868 and PKNOX1_56 − 71) where placed in the same binding site as the Girdin and DBP peptides with high confidences by AF3 modelling (ipTM 0.92 and 0.74; Supplementary Fig. S3).
# Four rounds of phage selections were carried out using the second generation human disorderome library or the constructed deep mutational scanning library. At least three individual replicates were used for each bait protein. 10 µg of GST-tagged proteins or GST control (diluted in PBS from the stock of proteins kept in the purification elution buffer) were immobilized in 100 µL PBS on a 96-well MaxiSorp (Nunc) plate overnight at 4 °C. The plates were incubated with blocking buffer (with 0.5% BSA in PBS) for 1 h at 4 °C followed by washing with 0.05% Tween 20 in PBS four times. The naïve phage library (10^11 CFU) was diluted in 1/5th volume PEG/NaCl (20% PEG-8000, 0.4 M NaCl) and 1X PBS, incubated on ice for 10 min and centrifuged at 10,000 [drawing 3] g for 10 min. The pellet was resuspended in the volume of PBS (100 µL/ well). […]
# USP8 MIT domain [3] = test: Peptide-phage display-based deep mutational scanning (DMS), USP8 MIT domain; conditions: for DMS-derived binding motif: M13 phage, triplicate selections in biological replicates, NGS, PSSM
# Procedure, shortened: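 Four rounds of phage selection against immobilized GST-tagged bait (GST control pre-clearing) at 4 °C, using human disorderome or 16-mer deep mutational scanning library (all non-Cys substitutions), ≥3 replicates. Enriched pools sequenced by Illumina NGS; replicate-summed counts converted to averaged fractions and frequency PSSMs per wild-type peptide.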
sequence,measurement,setting,value
"AGAALLALLAALCP [EGFR, Epidermal growth factor receptor peptide]",Percentage (%) normalized to highest intensity and corrected for background,USP8 MIT domain [1],6%
same,Percentage (%),USP8 MIT domain [1],6%
"APLLCLALLPALAA [NOTCH1, Neurogenic locus notch homolog protein 1 peptide]",Percentage (%) normalized to highest intensity and corrected for background,USP8 MIT domain [1],2%
same,Percentage (%),USP8 MIT domain [1],2%
"APPSLLLLLLAQLV [FZD5, Frizzled-5 peptide]",Percentage (%) normalized to highest intensity and corrected for background,USP8 MIT domain [1],24%
same,Percentage (%),USP8 MIT domain [1],24%
"DDLSRRFEELKKKT [IST1, IST1 homolog peptide]",Percentage (%) normalized to highest intensity and corrected for background,USP8 MIT domain [1],5%
same,Percentage (%),USP8 MIT domain [1],5%
"DKEIDLELLQDLME [BIRC6, Baculoviral IAP repeat-containing protein 6 peptide]",Percentage (%) normalized to highest intensity and corrected for background,USP8 MIT domain [1],12%
same,Percentage (%),USP8 MIT domain [1],12%
"DPSNNFRLHNGRS [CFLAR, CASP8 and FADD-like apoptosis regulator peptide]",Percentage (%) normalized to highest intensity and corrected for background,USP8 MIT domain [1],31%
same,Percentage (%),USP8 MIT domain [1],31%
"GELLLLSLLLLLEP [PDGFRB, Platelet-derived growth factor receptor beta peptide]",Percentage (%) normalized to highest intensity and corrected for background,USP8 MIT domain [1],-3.37%
same,Percentage (%),USP8 MIT domain [1],-3%
"KEPDALTLLAPAAG [HIF1A, Hypoxia-inducible factor 1-alpha peptide]",Percentage (%) normalized to highest intensity and corrected for background,USP8 MIT domain [1],-0.189%
same,Percentage (%),USP8 MIT domain [1],0%
MDDDYEAYHSLFLSLL [EFCAB12_1 − 16],NGS counts (%),USP8 MIT domain [2],78.22%
same,max_counts,USP8 MIT domain [2],3851
same,Confidence,USP8 MIT domain [2],3
same,Counts,USP8 MIT domain [2],0.08013
same,Promiscuity,USP8 MIT domain [2],6
same,Replicates,USP8 MIT domain [2],6
same,Specificity,USP8 MIT domain [2],0.9605
same,"PSSM score, enrichment_relative_to_wt","USP8 MIT domain [3]; EFCAB12 MDDDYEAYHSLFLSLL, library USP8_DMS, days 2,3, quotient of wild type and mutant frequencies per column, highest divided by lowest",1
same,DMS-derived binding motif,USP8 MIT domain [3],"[DE]Fx{2,3}R[FY]xxLL"
"MDLLFGRRKTPEELL [CHMP2A, Charged multivesicular body protein 2a peptide]",Percentage (%) normalized to highest intensity and corrected for background,USP8 MIT domain [1],-8%
same,Percentage (%),USP8 MIT domain [1],-8%
"MVSWGRFICLVVVTM [FGFR2, Fibroblast growth factor receptor 2 peptide]",Percentage (%) normalized to highest intensity and corrected for background,USP8 MIT domain [1],2.8%
same,Percentage (%),USP8 MIT domain [1],3%
"NKTLEYKIEILEKT [KIF23, Kinesin-like protein KIF23 peptide]",Percentage (%) normalized to highest intensity and corrected for background,USP8 MIT domain [1],7%
same,Percentage (%),USP8 MIT domain [1],7%
"PPSSSLELLASLTP [PTPN23, Tyrosine-protein phosphatase non-receptor type 23 peptide]",Percentage (%) normalized to highest intensity and corrected for background,USP8 MIT domain [1],-7%
same,Percentage (%),USP8 MIT domain [1],-7%
"PQYTNLGLLNSMDQ [TP63 A14, Tumor protein 63 peptide, array position A14]",Percentage (%) normalized to highest intensity and corrected for background,USP8 MIT domain [1],8%
same,Percentage (%),USP8 MIT domain [1],8%
"QAAIALSLLESPKI [USP28, Ubiquitin carboxyl-terminal hydrolase 28 peptide]",Percentage (%) normalized to highest intensity and corrected for background,USP8 MIT domain [1],1.29%
same,Percentage (%),USP8 MIT domain [1],1%
"QAIYRHPLFPLLALLF [PKNOX1_56 − 71, Homeobox protein PKNOX1 peptide]",NGS counts (%),USP8 MIT domain [2],0.95%
same,max_counts,USP8 MIT domain [2],107
same,Confidence,USP8 MIT domain [2],2
same,Counts,USP8 MIT domain [2],0.001294
same,Promiscuity,USP8 MIT domain [2],21
same,Replicates,USP8 MIT domain [2],1
same,Specificity,USP8 MIT domain [2],0.5
"QGPALRYFQLPPRAA [SHANK1 B6, SHANK1 peptide, array position B6]",Percentage (%) normalized to highest intensity and corrected for background,USP8 MIT domain [1],7%
same,Percentage (%),USP8 MIT domain [1],7%
"RFVVALVLLNVAAA [TGOLN2, Trans-Golgi network integral membrane protein 2 peptide]",Percentage (%) normalized to highest intensity and corrected for background,USP8 MIT domain [1],-4.72%
same,Percentage (%),USP8 MIT domain [1],-5%
"RGVLALALLALALC [RNF149, E3 ubiquitin-protein ligase RNF149 peptide]",Percentage (%) normalized to highest intensity and corrected for background,USP8 MIT domain [1],3%
same,Percentage (%),USP8 MIT domain [1],3%
"SEVSDIESRIAALRAA [MLPH481 − 496, melanophilin peptide]",NGS counts (%),USP8 MIT domain [2],0.52%
same,max_counts,USP8 MIT domain [2],33
same,Confidence,USP8 MIT domain [2],3
same,Counts,USP8 MIT domain [2],0.000511
same,Promiscuity,USP8 MIT domain [2],2
same,Replicates,USP8 MIT domain [2],3
same,Specificity,USP8 MIT domain [2],0.9365
same,DMS-derived binding motif,USP8 MIT domain [3],"[DE]Fx{2,3}R[FY]xxLL"
"TKTLEERISKLISDNE [HIVEP1_741 − 756, Zinc finger protein 40 peptide]",NGS counts (%),USP8 MIT domain [2],0.21%
same,max_counts,USP8 MIT domain [2],19
same,Confidence,USP8 MIT domain [2],2
same,Counts,USP8 MIT domain [2],0.001178
same,Promiscuity,USP8 MIT domain [2],1
same,Replicates,USP8 MIT domain [2],2
same,Specificity,USP8 MIT domain [2],1
"VLSKRKGGNVGKSKRD [ERVK-21, Endogenous retrovirus group K member 21 Env polyprotein peptide 676-691]",NGS counts (%),USP8 MIT domain [2],0.16%
same,max_counts,USP8 MIT domain [2],18
same,Confidence,USP8 MIT domain [2],2
same,Counts,USP8 MIT domain [2],0.000837
same,Promiscuity,USP8 MIT domain [2],4
same,Replicates,USP8 MIT domain [2],1
same,Specificity,USP8 MIT domain [2],0.5806
